Results reported in patent US8642510B2, “Inhibitors for brassinosteroid signalling” (GMI-Gregor Mendel-Institut fuer Molekulare Pflanzenbiologie …, priority 2008, dated 2014).
Entries after “also recorded” stand apart in the source; their conditions may differ.

Assays:
ASKζ = target: T1, ASKζ (Arabidopsis thaliana, UniProt Q39010); experiment: In vivo kinase assay, BZR1-CFP phosphorylation band-shift in protoplasts; assay type: cell-based, A. thaliana; settings: protoplasts co-transformed with BZR1-CFP and Myc-tagged ASK; increasing concentrations
T1 construct: expressed in transfected cells; host or cells: A. thaliana protoplasts
T1 sequence (Q39010 1-412): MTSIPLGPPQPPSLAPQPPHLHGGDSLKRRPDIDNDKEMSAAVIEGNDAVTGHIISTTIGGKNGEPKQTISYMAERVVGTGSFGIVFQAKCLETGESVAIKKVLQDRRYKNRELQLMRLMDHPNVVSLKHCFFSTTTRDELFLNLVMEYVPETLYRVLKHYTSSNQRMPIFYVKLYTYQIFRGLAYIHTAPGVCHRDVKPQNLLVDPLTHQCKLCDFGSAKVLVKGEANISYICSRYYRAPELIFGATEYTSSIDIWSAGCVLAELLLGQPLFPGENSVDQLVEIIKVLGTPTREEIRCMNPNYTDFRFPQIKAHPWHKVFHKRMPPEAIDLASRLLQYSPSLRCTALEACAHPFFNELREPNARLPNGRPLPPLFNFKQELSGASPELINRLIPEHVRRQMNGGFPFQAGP
Text: A. thaliana protoplasts were co-transformed with expression constructs of BZR1-CFP and Myc-tagged ASKζ and treated with increasing concentrations of compounds 10 and 15. […] and ASKζ-Myc were detected by western blot analysis using polyclonal anti-GFP and monoclonal anti-Myc antibodies, respectively. A Coomassie R250 stain is shown as a loading control. Depending on the ASKζ kinase activity BZR1-CFP can be observed in a phosphorylated or unphosphorylated form (indicated by arrows). The ratio of the two ASKζ-Myc bands, indicating posttranslational modification of this protein, were not affected by inhibitor application.
ASKs were expressed as GST-fusion proteins in E. coli BL21. […] The reaction products were separated by SDS-PAGE and the amount of radioactivity incorporated into MBP quantified using an Amersham storage phosphor imager screen and a Biorad Molecular Imager FX. In vivo kinase activity was detected by phosphorylation band-shift assays using BZR1-CFP as substrate.
Because of this unexpected result, the effect of the inhibitions on the in vivo ASK activity was analysed by a direct method. […] Transformed protoplasts were incubated with different concentrations of compounds 10 and 15 and BZR1-CFP and […] and subsequently analysed by western blotting.

cpd mutant seedlings = experiment: Physiological test, phenotype rescue of brassinosteroid synthesis mutant cpd; assay type: in vivo, Arabidopsis thaliana; settings: 30 μM in medium, 7 days
Method: FIG. 3: Effects on the phenotype of brassinosteroid mutants. 7-day-old seedlings of the brassinosteroid synthesis mutant cpd and signalling mutant bri1-1 were transferred to MS medium containing 1 μM epi-brassinolide (Epi-BL) or compounds 10 and 15 at a concentration of 30 μM and incubated for 7 days under long day conditions. All pictures were taken at the same magnification. The bar represents 1 mm.
Arabidopsis thaliana Co10 or bri1-1 seedlings were grown in vitro on ½ MS plates containing 1% sucrose in a growth camber under long day conditions (16 h light with 50 μE·m^−2·s^−1, 8 h dark) for 7 days. Subsequently, they were transferred to plates supplemented with inhibitors at different concentrations and effects on the phenotype were observed 7 days later.
Downregulation of ASK activity is crucial in brassinosteroid signalling. ASKs are constitutively active in cpd and bril-1 mutants, which are defective in brassinosteroid biosynthesis or signalling, respectively. This leads to severely dwarfed plants with dark green downward curled leaves and shortened hypocotyls. […] To screen for in vivo potency, cpd and bril-1 mutants were transferred to media containing 4-[(5-bromo-2-pyridinyl)amino]-4-oxobutanoic acid derivatives at a concentration of 30 μM. […] The potency to rescue the phenotype correlated with the results of the in vitro assay.

[1] = Cell-permeability assay (uptake by seedlings); assay type: in vivo, A. thaliana; settings: 50 μM in medium
Method: FIG. 6: Methylation increases tissue-permeability. A. thaliana seedlings were incubated in 50 μM solutions of compounds 10 and 15 in ½MS medium. Samples were taken after the indicated time and the in situ levels of compound 15 analysed by HPLC. The solid line represents the results for plants incubated with compound 10 and the dashed line the results for compound 15. The means and standard deviations were calculated from 3 independent assays.
Two-week-old A. thaliana Co10 seedlings were transferred to ½MS medium containing 50 μM inhibitor. Samples were removed after the indicated time points, rinsed with water, dried with filter paper and frozen in liquid nitrogen. For analysis the plant material was ground to a fine powder in a mortar pre-cooled with liquid nitrogen. […]
The cell-permeability of a substance is an important characteristic influencing its in vivo potency. The uptake of compounds 10 and 15 by plants was determined by treatment of seedlings with solutions of these compounds and subsequent quantification of the internalised inhibitor concentrations (FIG. 6). Since compound 10 is rapidly converted to 15, only the in situ concentration of 15 was measured. […] While 50 μM were present in the medium, in situ concentrations of about 90 μM could be measured in the case of compound 15 and up to 190 μM in the case of application of compound 10.

With `COC(=O)CCC(=O)Nc1ccc(I)cn1` [Compound 10, 4-[(5-iodopyrid-2-yl)amino]-4-oxobutanoic acid methyl ester] the “Inhibition of in vivo ASK activity (BZR1-CFP phosphorylation shift)” value (ASKζ) was “potent inhibitors in vivo; also recorded: highly active”, the “Rescue of cpd mutant phenotype” value (cpd mutant seedlings) was “highly active in vivo” and the “Uptake rate relative to compound 15” value [1] was “roughly double”. For the same molecule, the “Tissue permeability / uptake” value ([1]; result in words) was “higher tissue permeability; also recorded: very rapid uptake”.
